We go through 26 molecules from patent publication US7226923B2, “Phthalazinone derivatives” (Hoffman-La Roche Inc., priority 2004, dated 2007).

The term IC50 denotes the concentration that inhibits the measured activity by half.

The subject of one experiment is HCT 116 cells. As to the kind of experiment: CellTiter-Glo assay in HCT 116 cells. Type of experiment: cell-based, human. The settings on record: Homo sapiens, HCT-116, 120 h, 5 days incubation, 30 μM to 0.0015 μM. The source says: CellTiter-Glo™ Assay in HCT 116 Cells
The CellTiter-Glo™ Luminescent Cell Viability Assay (Promega) is a homogeneous method of determining the number of viable cells in culture based on quantitation of the ATP present, which signals the presence of metabolically active cells.
HCT 116 cells (human colon carcinoma, ATCC-No. CCl-247) were cultivated in RPMI 1640 medium with GlutaMAX™ I (Invitrogen, Cat-No. 61870-010), 2.5% Fetal Calf Serum (FCS, Sigma Cat-No. F4135 (FBS)); 100 Units/ml penicillin/100 μg/ml streptomycin (=Pen/Strep from Invitrogen Cat. No. 15140). For the assay the cells were seeded in 384 well plates, 1000 cells per well, in the same medium. The next day the test compounds were added in various concentrations ranging from 30 μM to 0.0015 μM (10 concentrations, 1:3 diluted). After 5 days the CellTiter-Glo™ assay was done according to the instructions of the manufacturer (CellTiter-Glo™ Luminescent Cell Viability Assay, from Promega). In brief: the cell-plate was equilibrated to room temperature for approximately 30 minutes and than the CellTiter-Glo™ reagent was added. The contents were carefully mixed for 15 minutes to induce cell lysis. After 45 minutes the luminescent signal was measured in Victor 2, (scanning multiwell spectrophotometer, Wallac).
1st. Day: • Medium: RPMI 1640 with GlutaMAX™ I (Invitrogen, Cat-Nr. 61870), 5% FCS (Sigma Cat.-No. F4135), Pen/Strep (Invitrogen, Cat No. 15140). • HCT116 (ATCC-No. CCl-247): 1000 cells in 60 μl per well of 384 well plate (Greiner 781098, μClear-plate white) • After seeding incubate plates 24 h at 37° C., 5% CO2
2nd. Day: Induction (Treatment with Compounds, 10 Concentrations):
In order to achieve a final concentration of 30 μM as highest concentration 3.5 μl of 10 mM compound stock solution were added directly to 163 μl media. Then step e) of the dilution procedure described below, was followed.
(Cellular ATP, detected with luciferase, serves as a proxy for viable cell number.)

The target in the next experiment is T1, Aurora A (Homo sapiens, UniProt O14965).
T1 construct: C-terminally Histidine4 (His4)-tagged Aurora A full-length protein
T1 sequence (O14965 1-403): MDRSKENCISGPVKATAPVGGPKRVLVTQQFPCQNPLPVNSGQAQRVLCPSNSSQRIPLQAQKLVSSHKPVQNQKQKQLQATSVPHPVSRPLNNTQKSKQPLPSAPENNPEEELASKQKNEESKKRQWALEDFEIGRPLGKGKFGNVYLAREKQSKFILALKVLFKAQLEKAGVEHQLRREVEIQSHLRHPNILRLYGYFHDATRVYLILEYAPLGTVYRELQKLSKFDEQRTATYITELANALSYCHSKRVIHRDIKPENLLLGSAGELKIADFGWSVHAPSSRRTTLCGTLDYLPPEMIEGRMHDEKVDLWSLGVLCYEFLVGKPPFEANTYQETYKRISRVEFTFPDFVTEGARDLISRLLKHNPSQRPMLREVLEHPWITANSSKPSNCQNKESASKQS
As to the kind of experiment: IC50 determination for inhibitors of Aurora A (96 MTP-ELISA). Type of experiment: biochemical. Conditions: His4-tagged full-length Aurora A 250 ng/ml, PKB-GSK2 200 nM, ATP 4 μM, 90 min at room temperature, read-out: IC50 Aurora A kinase inhibition. (ELISA stands for enzyme-linked immunosorbent assay.)

For `CNC(=O)Nc1ccc2c(Nc3cc(C)[nH]n3)nn(C(C)C)c(=O)c2c1` [Example I-13, 1-[3-Isopropyl-1-(5-methyl-1H-pyrazol-3-ylamino)-4-oxo-3,4-dihydro-phthalazin-6-yl]-3-methyl-urea], the IC50 with HCT 116 cells fell in the range of 100 to 10000 nM; on Aurora A it was 1 to 100 nM.

On to `Cc1cc(Nc2nn(C(C)C)c(=O)c3cc(C(N)=O)ccc23)n[nH]1` [Example N-1, 3-Isopropyl-1-(5-methyl-1H-pyrazol-3-ylamino)-4-oxo-3,4-dihydro-phthalazine-6-carboxylic acid amide], for which the values for the IC50 in the experiment on HCT 116 cells and at Aurora A were 100 to 10000 nM and 1 to 100 nM, respectively.

Consider `Cc1cc(Nc2nn(CC(F)(F)F)c(=O)c3ccccc23)n[nH]1` [Example A-5, 4-(5-Methyl-1H-pyrazol-3-ylamino)-2-(2,2,2-trifluoro-ethyl)-2H-phthalazin-1-one], for which the IC50 in the experiment with HCT 116 cells was 100 to 10000 nM; on Aurora A, 1 to 100 nM.

In the case of `Cc1cc(Nc2nn(C(C)C)c(=O)c3c(N(C)C)cccc23)n[nH]1` [Example F-8, 2-Isopropyl-4-(5-methyl-1H-pyrazol-3-ylamino)-8-dimethylamino-2H-phthalazin-1-one], the IC50 is 420 nM in the experiment with HCT 116 cells and 1 to 100 nM on Aurora A.

`COc1ccc2c(Nc3cc(C)[nH]n3)nn(C(C)C)c(=O)c2c1` [Example G-1, 2-Isopropyl-4-(5-methyl-1H-pyrazol-3-ylamino)-7-methoxy-2H-phthalazin-1-one]: the IC50 lay in the range of 100 to 10000 nM with HCT 116 cells and 1 to 100 nM on Aurora A.

Consider `Cc1cc(Nc2nn(-c3ccc(C(C)(C)C)cc3)c(=O)c3cc([N+](=O)[O-])ccc23)[nH]n1` [Example ZB-3, 2-(4-tert-Butyl-phenyl)-4-(5-methyl-2H-pyrazol-3-ylamino)-7-nitro-2H-phthalazin-1-one], for which the IC50 is 100 to 10000 nM in the experiment on HCT 116 cells and 1 to 100 nM on Aurora A.

For the molecule `Cc1cc(Nc2nn(Cc3ccc(F)cc3)c(=O)c3ccccc23)n[nH]1` [Example A-20, 2-(4-Fluoro-benzyl)-4-(5-methyl-1H-pyrazol-3-ylamino)-2H-phthalazin-1-one], the IC50 in the experiment with HCT 116 cells was 100 to 10000 nM; on Aurora A, 1 to 100 nM.

For the molecule `Cc1cc(Nc2nn(Cc3ccccn3)c(=O)c3ccccc23)[nH]n1` [Example A-22, 4-(5-Methyl-2H-pyrazol-3-ylamino)-2-pyridin-2-ylmethyl-2H-phthalazin-1-one], the IC50 lay within 100 to 10000 nM in the experiment on HCT 116 cells and 1 to 100 nM at Aurora A.

Turning to `Cc1cccc(-n2nc(Nc3cc(C)[nH]n3)c3ccccc3c2=O)c1` [Example B-2, 4-(5-Methyl-1H-pyrazol-3-ylamino)-2-m-tolyl-2H-phthalazin-1-one], the IC50 with HCT 116 cells was 780 nM; at Aurora A, 1 to 100 nM.

Regarding `Cc1cc(Nc2nn(Cc3ccc([N+](=O)[O-])cc3)c(=O)c3ccccc23)n[nH]1` [Example B-3, 4-(5-Methyl-1H-pyrazol-3-ylamino)-2-(4-nitro-benzyl)-2H-phthalazin-1-one], the figures for the IC50 with HCT 116 cells and at Aurora A were 100 to 10000 nM and 100 to 1000 nM, respectively.

For `COC(=O)c1ccc2c(Nc3cc(C)[nH]n3)nn(C(C)C)c(=O)c2c1` [Example M-8, 3-Isopropyl-1-(5-methyl-1H-pyrazol-3-ylamino)-4-oxo-3,4-dihydro-phthalazine-6-carboxylic acid methyl ester], the half-inhibitory concentration (IC50) in the experiment on HCT 116 cells was 100 to 10000 nM; at Aurora A, 1 to 100 nM.

On to `Cc1cc(Nc2nn(-c3ccc(Nc4ccccc4)cc3)c(=O)c3ccccc23)n[nH]1` [Example U-1, 4-(5-Methyl-1H-pyrazol-3-ylamino)-2-(4-phenylamino-phenyl)-2H-phthalazin-1-one], for which the IC50 with HCT 116 cells was 100 to 10000 nM; at Aurora A, 1 to 100 nM.

Regarding `Cc1cc(Nc2nn(Cc3csc(C)n3)c(=O)c3ccccc23)n[nH]1` [Example A-16, 4-(5-Methyl-1H-pyrazol-3-ylamino)-2-(2-methyl-thiazol-4-ylmethyl)-2H-phthalazin-1-one], the results for the IC50 with HCT 116 cells and on Aurora A were 100 to 10000 nM and 100 to 1000 nM, respectively.

As for `Cc1cc(Nc2nn(CC(=O)c3ccc(OC(F)(F)F)cc3)c(=O)c3ccccc23)n[nH]1` [Example E-6, 4-(5-Methyl-1H-pyrazol-3-ylamino)-2-[2-oxo-2-(4-trifluoromethoxy-phenyl)-ethyl]-2H-phthalazin-1-one], the IC50 lay in the range of 10000 to 100000 nM in the experiment on HCT 116 cells and 100 to 1000 nM at Aurora A.

In the case of `Cc1cc(Nc2nn(-c3ccc(N4CCOCC4)cc3)c(=O)c3ccccc23)n[nH]1` [Example U-2, 4-(5-Methyl-1H-pyrazol-3-ylamino)-2-(4-morpholin-4-yl-phenyl)-2H-phthalazin-1-one], the IC50 with HCT 116 cells lay within 100 to 10000 nM; on Aurora A, 1 to 100 nM.

Regarding `Cc1cc(Nc2nn(C(C)C)c(=O)c3cc(F)ccc23)n[nH]1` [Example E-2, 7-Fluoro-2-isopropyl-4-(5-methyl-1H-pyrazol-3-ylamino)-2H-phthalazin-1-one], the figures for the IC50 with HCT 116 cells and at Aurora A were 100 to 10000 nM and 1 to 100 nM, respectively.

Take `Cc1cc(Nc2nn(C(C)C)c(=O)c3cc(OCc4ccncc4)ccc23)n[nH]1` [Example G-4, 2-Isopropyl-4-(5-methyl-1H-pyrazol-3-ylamino)-7-(pyridin-4-ylmethoxy)-2H-phthalazin-1-one]: the IC50 with HCT 116 cells lay within 100 to 10000 nM; at Aurora A, 1 to 100 nM.

Regarding `Cc1cc(Nc2nn(-c3ccc(C(C)(C)C)cc3)c(=O)c3ccccc23)n[nH]1` [Example A-8, 2-(4-tert-Butyl-phenyl)-4-(5-methyl-1H-pyrazol-3-ylamino)-2H-phthalazin-1-one], the IC50 with HCT 116 cells lay within 100 to 10000 nM; on Aurora A it was 100 to 1000 nM.

In the case of `Cc1cc(Nc2nn(-c3ccc(C(C)C)cc3)c(=O)c3ccccc23)[nH]n1` [Example P-1, 2-(4-Isopropyl-phenyl)-4-(5-methyl-2H-pyrazol-3-ylamino)-2H-phthalazin-1-one], the IC50 with HCT 116 cells is 100 to 10000 nM; at Aurora A, 1 to 100 nM.

On to `COCc1ccc2c(Nc3cc(C)[nH]n3)nn(C(C)C)c(=O)c2c1` [Example K-1, 2-Isopropyl-7-methoxymethyl-4-(5-methyl-1H-pyrazol-3-ylamino)-2H-phthalazin-1-one], for which the IC50 in the experiment on HCT 116 cells fell in the range of 100 to 10000 nM; on Aurora A, 1 to 100 nM.

For `Cc1cc(Nc2nn(C(C)C)c(=O)c3cc(OC(F)F)ccc23)n[nH]1` [Example G-7, 7-Difluoromethoxy-2-isopropyl-4-(5-methyl-1H-pyrazol-3-ylamino)-2H-phthalazin-1-one], the IC50 in the experiment on HCT 116 cells is 100 to 10000 nM; on Aurora A it was 1 to 100 nM.

Turning to `Cc1cc(Nc2nn(C(C)C)c(=O)c3cc(N(C)Cc4ccccn4)ccc23)n[nH]1` [Example I-4, 2-Isopropyl-4-(5-methyl-1H-pyrazol-3-ylamino)-7-(methyl-pyridin-2-ylmethyl-amino)-2H-phthalazin-1-one], the results for the IC50 with HCT 116 cells and at Aurora A were 100 to 10000 nM and 1 to 100 nM, respectively.

Regarding `Cc1cc(Nc2nn(C(C)C)c(=O)c3cc(N(C)C(=O)OC(C)(C)C)ccc23)[nH]n1` [Example I-14, [3-Isopropyl-1-(5-methyl-2H-pyrazol-3-ylamino)-4-oxo-3,4-dihydro-phthalazin-6-yl]-methyl-carbamic acid tert-butyl ester], the values for the IC50 in the experiment with HCT 116 cells and on Aurora A were 100 to 10000 nM and 1 to 100 nM, respectively.

With `CSc1ccc2c(Nc3cc(C)[nH]n3)nn(C(C)C)c(=O)c2c1` [Example H-1, 2-Isopropyl-4-(5-methyl-1H-pyrazol-3-ylamino)-7-methylsulfanyl-2H-phthalazin-1-one], the results for the IC50 with HCT 116 cells and at Aurora A were 100 to 10000 nM and 1 to 100 nM, respectively.

Take `Cc1cc(Nc2nn(-c3ccc(C(C)(C)C)cc3)c(=O)c3cc(NC=O)ccc23)[nH]n1` [Example ZB-1, N-[3-(4-tert-Butyl-phenyl)-1-(5-methyl-2H-pyrazol-3-ylamino)-4-oxo-3,4-dihydro-phthalazin-6-yl]-formamide]: the IC50 fell in the range of 100 to 10000 nM with HCT 116 cells and 1 to 100 nM at Aurora A.

Regarding `Cc1cc(Nc2nn(C(C)C)c(=O)c3cc(N(C)CCN4CCOCC4)ccc23)n[nH]1` [Example I-1, 2-Isopropyl-7-[methyl-(2-morpholin-4-yl-ethyl)-amino]-4-(5-methyl-1H-pyrazol-3-ylamino)-2H-phthalazin-1-one], the values for the IC50 in the experiment with HCT 116 cells and on Aurora A were 100 to 10000 nM and 1 to 100 nM, respectively.
